Strand notation (5' to 3'): a small letter for the sugar, then the base; units joined by * are phosphorothioate-linked, units joined directly phosphodiester-linked; [ ] holds rarer units or linkages, { } end groups; capitals alone tell only the bases. e = 2'-O-(2-methoxyethyl) (MOE); [5mC] = 5-methylcytosine; d = 2'-deoxy (DNA)
Tested on: rat RANKL mRNA
Test: Antisense inhibition of rat RANKL mRNA levels in UMR-106 cells, quantitative real-time PCR (Table 3)
Assay type: cell-based
Set-up: concentration or dose not given beside the values
Settings: averages from three experiments
Experimental: Cells were seeded onto 24-well plates (Falcon-353047) at a density of […] for use in antisense oligonucleotide transfection.
Cells are treated and data are obtained in triplicate. […] Cells were harvested 16-24 hours after oligonucleotide treatment.
PCR reagents were obtained from Invitrogen Corporation, (Carlsbad, Calif.).
Probes and primers to rat RANKL were designed to hybridize to a rat RANKL sequence, using published sequence information (GenBank accession number NM_057149.1, incorporated herein as SEQ ID NO:18). For rat RANKL the PCR primers were: • forward primer: […] (SEQ ID NO:19) • reverse primer: […] (SEQ ID NO: 20) and the • PCR probe was: FAM-[…]-TAMRA (SEQ ID NO: 21) where FAM is the fluorescent reporter dye and TAMRA is the quencher dye. For rat GAPDH the PCR primers were: • forward primer: […](SEQ ID NO:22) • reverse primer: […](SEQ ID NO:23) and the • PCR probe was: 5′ JOE-[…]-TAMRA 3′ (SEQ ID NO: 24) where JOE is the fluorescent reporter dye and TAMRA is the quencher dye.
In accordance with the present invention, a second series of antisense compounds was designed to target different regions of the rat RANKL RNA, using published sequences (GenBank accession number NM_057149.1, incorporated herein as SEQ ID NO: 18, and GenBank accession number AF425669.1, incorporated herein as SEQ ID NO: 200). […] All cytidine residues are 5-methylcytidines. […] If present, “N.D.” indicates “no data”.

| Substance | % INHIB (inhibition of rat RANKL mRNA levels) [%] |
| --- | --- |
| 180806 (antisense eG*eG*e[5mC]*eA*eG*d[5mC]*dA*dT*dT*dG*dA*dT*dG*dG*dT*eG*eA*eG*eG*eT) [compound 180806] | 9 |
| 286586 (antisense eG*eG*eT*eA*e[5mC]*dT*dT*dG*d[5mC]*d[5mC]*dG*dT*dA*dG*dT*e[5mC]*eT*e[5mC]*eG*eG) [compound 286586] | 63 |
| 286587 (antisense eG*e[5mC]*eG*e[5mC]*eA*dG*dG*dT*dA*d[5mC]*dT*dT*dG*d[5mC]*d[5mC]*eG*eT*eA*eG*eT) [compound 286587] | 50 |
| 286588 (antisense eG*e[5mC]*eG*eA*eT*dG*d[5mC]*dT*dG*d[5mC]*dA*dG*dA*d[5mC]*d[5mC]*eA*e[5mC]*e[5mC]*eT*eG) [compound 286588] | 63 |
| 286589 (antisense eA*e[5mC]*eA*eG*eA*dG*d[5mC]*dG*dA*dT*dG*d[5mC]*dT*dG*d[5mC]*eA*eG*eA*e[5mC]*e[5mC]) [compound 286589] | 49 |
| 286590 (antisense e[5mC]*eA*eG*eG*eA*dA*d[5mC]*dA*dG*dA*dG*d[5mC]*dG*dA*dT*eG*e[5mC]*eT*eG*e[5mC]) [compound 286590] | 47 |
| 286591 (antisense eA*eA*eG*eT*eA*d[5mC]*dA*dG*dG*dA*dA*d[5mC]*dA*dG*dA*eG*e[5mC]*eG*eA*eT) [compound 286591] | 17 |
| 286592 (antisense e[5mC]*eT*e[5mC]*eG*eA*dA*dA*dG*dT*dA*d[5mC]*dA*dG*dG*dA*eA*e[5mC]*eA*eG*eA) [compound 286592] | 16 |
| 286593 (antisense e[5mC]*eT*eG*e[5mC]*eG*d[5mC]*dT*d[5mC]*dG*dA*dA*dA*dG*dT*dA*e[5mC]*eA*eG*eG*eA) [compound 286593] | 49 |
| 286594 (antisense eT*e[5mC]*e[5mC]*eA*eT*d[5mC]*dT*dG*d[5mC]*dG*d[5mC]*dT*d[5mC]*dG*dA*eA*eA*eG*eT*eA) [compound 286594] | 35 |
| 286595 (antisense eT*eA*eG*eG*eA*dT*d[5mC]*d[5mC]*dA*dT*d[5mC]*dT*dG*d[5mC]*dG*e[5mC]*eT*e[5mC]*eG*eA) [compound 286595] | 46 |
| 286596 (antisense eT*e[5mC]*eT*eG*eT*dT*dA*dG*dG*dA*dT*d[5mC]*d[5mC]*dA*dT*e[5mC]*eT*eG*e[5mC]*eG) [compound 286596] | 58 |
| 286597 (antisense eG*eA*eT*eA*eT*dT*d[5mC]*dT*dG*dT*dT*dA*dG*dG*dA*eT*e[5mC]*e[5mC]*eA*eT) [compound 286597] | 57 |
| 286598 (antisense e[5mC]*eT*eT*e[5mC]*eT*dG*dA*dT*dA*dT*dT*d[5mC]*dT*dG*dT*eT*eA*eG*eG*eA) [compound 286598] | 6 |
| 286599 (antisense e[5mC]*eG*e[5mC]*eG*eT*dG*d[5mC]*dT*dG*dT*d[5mC]*dT*dT*d[5mC]*dT*eG*eA*eT*eA*eT) [compound 286599] | 46 |
| 286600 (antisense eT*eT*e[5mC]*eT*eG*dT*dA*dG*dA*dA*dG*d[5mC]*dA*dG*d[5mC]*eG*e[5mC]*eG*eT*eG) [compound 286600] | 13 |
| 286601 (antisense eT*e[5mC]*eA*e[5mC]*eG*dG*dA*dG*dT*d[5mC]*dT*d[5mC]*dA*dG*dA*eA*eT*eT*e[5mC]*eT) [compound 286601] | 63 |
| 286602 (antisense eA*eA*e[5mC]*e[5mC]*eT*dG*dT*dA*dT*dT*dT*dT*d[5mC]*dA*d[5mC]*eG*eG*eA*eG*eT) [compound 286602] | 48 |
| 286603 (antisense eA*eG*eT*e[5mC]*eG*dA*dG*dT*d[5mC]*d[5mC]*dT*dG*d[5mC]*dA*dA*eA*e[5mC]*e[5mC]*eT*eG) [compound 286603] | 59 |
| 286604 (antisense eT*e[5mC]*e[5mC]*eA*eG*dA*dG*dT*d[5mC]*dG*dA*dG*dT*d[5mC]*d[5mC]*eT*eG*e[5mC]*eA*eA) [compound 286604] | 68 |
| 286605 (antisense eT*eT*eT*eG*e[5mC]*dA*d[5mC]*dG*dG*d[5mC]*d[5mC]*d[5mC]*d[5mC]*dT*dT*eG*eA*eA*eA*eG) [compound 286605] | 53 |

| Substance | % INHIB (inhibition of rat RANKL mRNA levels) [%] |
| --- | --- |
| 286606 (antisense eT*eG*eT*eA*eA*dT*dT*d[5mC]*d[5mC]*d[5mC]*dT*dT*dT*dG*d[5mC]*eA*e[5mC]*eG*eG*e[5mC]) [compound 286606] | 37 |
| 286607 (antisense eT*eG*eT*eG*eG*d[5mC]*d[5mC]*d[5mC]*d[5mC]*dA*d[5mC]*dA*dA*dT*dG*eT*eG*eT*eT*eG) [compound 286607] | 48 |
| 286608 (antisense e[5mC]*eA*eA*eA*e[5mC]*dG*dG*d[5mC]*dT*dG*dA*dG*d[5mC]*d[5mC]*dT*e[5mC]*eA*eG*eG*e[5mC]) [compound 286608] | 25 |
| 286609 (antisense eG*e[5mC]*eA*eG*e[5mC]*dA*dT*dT*dG*dA*dT*dG*dG*dT*dG*eA*eG*eG*eT*eG) [compound 286609] | 17 |
| 286610 (antisense eA*e[5mC]*eT*eT*eT*dA*dT*dG*dG*dG*dA*dA*d[5mC]*d[5mC]*d[5mC]*eG*eA*eT*eG*eG) [compound 286610] | 34 |
| 286611 (antisense eA*eG*eA*eG*eG*dA*d[5mC]*dA*dG*dA*d[5mC]*dT*dG*dA*d[5mC]*eT*eT*eT*eA*eT) [compound 286611] | 47 |
| 286612 (antisense eT*eG*eG*eT*eA*d[5mC]*d[5mC]*dA*dA*dG*dA*dG*dG*dA*d[5mC]*eA*eG*eA*e[5mC]*eT) [compound 286612] | 5 |
| 286613 (antisense eG*eA*eT*e[5mC]*eA*dT*dG*dG*dT*dA*d[5mC]*d[5mC]*dA*dA*dG*eA*eG*eG*eA*e[5mC]) [compound 286613] | 39 |
| 286614 (antisense eA*eT*e[5mC]*eT*eT*dG*dG*d[5mC]*d[5mC]*d[5mC]*dA*dG*d[5mC]*d[5mC]*dT*e[5mC]*eG*eA*eT*e[5mC]) [compound 286614] | 41 |
| 286615 (antisense eT*eA*eG*eA*eG*dA*dT*d[5mC]*dT*dT*dG*dG*d[5mC]*d[5mC]*d[5mC]*eA*eG*e[5mC]*e[5mC]*eT) [compound 286615] | 45 |
| 286616 (antisense e[5mC]*eA*eT*eG*eT*dT*dA*dG*dA*dG*dA*dT*d[5mC]*dT*dT*eG*eG*e[5mC]*e[5mC]*e[5mC]) [compound 286616] | 31 |
| 286617 (antisense eA*eG*eT*eT*eT*dT*d[5mC]*d[5mC]*dG*dT*dT*dG*d[5mC]*dT*dT*eA*eA*e[5mC]*eG*eT) [compound 286617] | 52 |
| 286618 (antisense eA*e[5mC]*e[5mC]*e[5mC]*eT*dT*dA*dG*dT*dT*dT*dT*d[5mC]*d[5mC]*dG*eT*eT*eG*e[5mC]*eT) [compound 286618] | 57 |
| 286619 (antisense eG*eG*eT*eT*eA*dA*d[5mC]*d[5mC]*d[5mC]*dT*dT*dA*dG*dT*dT*eT*eT*e[5mC]*e[5mC]*eG) [compound 286619] | 61 |
| 286620 (antisense eA*eT*e[5mC]*eT*eT*dG*dG*dT*dT*dA*dA*d[5mC]*d[5mC]*d[5mC]*dT*eT*eA*eG*eT*eT) [compound 286620] | 48 |
| 286621 (antisense eA*eA*eG*e[5mC]*e[5mC]*dA*dT*d[5mC]*dT*dT*dG*dG*dT*dT*dA*eA*e[5mC]*e[5mC]*e[5mC]*eT) [compound 286621] | 33 |
| 286622 (antisense eA*eA*eT*eA*eG*dA*dA*dG*d[5mC]*d[5mC]*dA*dT*d[5mC]*dT*dT*eG*eG*eT*eT*eA) [compound 286622] | 12 |
| 286623 (antisense eT*eA*eA*eT*eA*dG*dA*dA*dG*d[5mC]*d[5mC]*dA*dT*d[5mC]*dT*eT*eG*eG*eT*eT) [compound 286623] | 16 |
| 286624 (antisense e[5mC]*eA*eG*eG*eT*dA*dA*dT*dA*dG*dA*dA*dG*d[5mC]*d[5mC]*eA*eT*e[5mC]*eT*eT) [compound 286624] | 22 |
| 286625 (antisense eG*e[5mC]*eG*eT*eA*d[5mC]*dA*dG*dG*dT*dA*dA*dT*dA*dG*eA*eA*eG*e[5mC]*e[5mC]) [compound 286625] | 50 |
| 286626 (antisense eT*eG*eT*eT*eG*dG*d[5mC]*dG*dT*dA*d[5mC]*dA*dG*dG*dT*eA*eA*eT*eA*eG) [compound 286626] | 41 |
